Source: PubChem BioAssay AID1963849 (Molecular Pharmacology Branch, DTP, NCI, 2024)

Tested on: 299254-011-R-J1-PDC complex spheroid viability
Test: Anticancer human tumor 299254-011-R-J1-PDC patient-derived melanoma cell line growth inhibition [POLQ]
Conditions: for IC50: curve of first compound; for viability, T/C: stronger effect = lower value
Method: Multicellular complex tumor spheroid response to Polymerase (POL) inhibitors (novobiocin, ART-558, RP6685) in combination with a variety of drugs and investigational agents in selected tumor cell lines
The POL inhibitors (novobiocin, ART-558, and RP6685) were evaluated both individually and in combination with standard of care and investigational anticancer small molecules within a complex spheroid model of solid tumors. . Complex spheroids include a stromal component modeled by human endothelial cells (HUVEC) and fibroblasts modeled by human mesenchymal stem cells (MSCs). The concentration ranges selected for each drug and investigational agent were based upon clinically achievable concentrations if the clinical Cmax of the agent was known.
Compounds. The drugs and investigational agents: novobiocin (NSC847541), ART-558 (NSC835418), RP-6685 (NSC848927), peposertib (NSC802822), ceralasertib (NSC780249), elimusertib (NSC800525), camonsertib (NSC841442), AZD-1390 (NSC803789), olaparib (NSC753686), talazoparib (NSC767125), rucaparib (NSC756644), sotorasib (NSC818433), MRTX-1133 (NSC836407), SN-38 (NSC673596), topotecan (NSC609699), epotoside (NSC141540), doxorubicin (NSC123127), gemcitabine (NSC613327), 5-fluorouracil (NSC19893), paclitaxel (NSC125973), vemurafenib (NSC761431), MSA-2 (NSC828583), SN-011 (NSC837082), adavosertib (NSC754352), prexasertib (NSC758257), carboplatin (NSC241240) and oxaliplatin (NSC266046), were obtained from the National Cancer Institute (NCI) Developmental Therapeutics Program Chemical Repository (21). The FDA-approved anticancer drug set is available from the Developmental Therapeutics Program at https://dtp.cancer.gov/organization/dscb/obtaining/. […] The stock solutions were prepared in dimethyl sulfoxide (DMSO, Sigma-Aldrich, St. Louis, MO, cat. D2650), except for the platinum compounds which were prepared in saline (Quality Biological, Gaithersburg, MD, cat. 114-055-101), at 800-fold the tested concentration and stored at -70 degrees C prior to their use. All drugs and investigational agents were tested over a range starting from a high concentration at or near the clinical Cmax and decreasing in half-log increments. If the clinical Cmax for an agent had not been determined, the highest concentration tested was 10 microM, except for SN-38, which was tested at a high concentration of 1 microM.
Cell Culture. All cells were maintained in an incubator at 37 degrees C and 5% CO2 with 95% humidity. The PDC lines were cultured according to standard operating procedures established by the NCI PDMR (https://pdmr.cancer.gov). Table 3 of the manuscript, lists the cell lines along with the number of the three cell types plated to form the mct-spheroids and media for tumor cell growth. After thawing, all PDC lines, except 997537-175-T-J1-PDC and 415267-285-R-J2-PDC, were cultured in Matrigel-coated flasks prepared with a working solution of 1X Ham's F-12 nutrient mix, without supplementation (Thermo Fisher Scientific, cat. 11765054), 100 U/mL penicillin-streptomycin (Thermo Fisher Scientific, cat. 15140122), and 2.5% Matrigel (Corning Inc., Corning, NY, cat. 354248) for the first three passages. The two PDC lines 997537-175-T-J1-PDC and 415267-285-R-J2-PDC were cultured on uncoated flasks. The 857933-349-R-J2-PDC line was cultured in 6C/Colon 1B media containing advanced DMEM/F-12 (Thermo Fisher Scientific, cat. 12634028), 10 mM HEPES (Thermo Fisher Scientific, cat. 15630080), 1X GlutaMAX supplement (Thermo Fisher Scientific, cat. 35050061), 0.1 mg/mL primocin (InvivoGen, San Diego, CA, cat. ant-pm-2), 10% defined fetal bovine serum, heat inactivated (HyClone Laboratories Inc., Logan, UT, cat. SH30070.03HI), 50% L-WRN conditioned media (ATCC, cat. CRL-3276), 1.25 mM N-Acetyl-L-cysteine (Sigma-Aldrich, cat. A9165), 10 mM nicotinamide (Sigma-Aldrich, cat. N0636), 1X B-27 supplement (Thermo Fisher Scientific, cat. 17504044), 1X N-2 supplement (Thermo Fisher Scientific, cat. […]

[1] = second compound 0.0316 µM, first compound 0.0316 µM
[2] = second compound 0.0316 µM, first compound 0.1 µM
[3] = second compound 0.0316 µM, first compound 0.316 µM
[4] = second compound 0.0316 µM, first compound 1 µM
[5] = second compound 0.0316 µM, first compound 3.16 µM
[6] = second compound 0.0316 µM, first compound 10 µM
[7] = second compound 0.1 µM, first compound 0.0316 µM
[8] = second compound 0.1 µM, first compound 0.1 µM
[9] = second compound 0.1 µM, first compound 0.316 µM
[10] = second compound 0.1 µM, first compound 1 µM
[11] = second compound 0.1 µM, first compound 3.16 µM
[12] = second compound 0.1 µM, first compound 10 µM
[13] = second compound 0.316 µM, first compound 0.0316 µM
[14] = second compound 0.316 µM, first compound 0.1 µM
[15] = second compound 0.316 µM, first compound 0.316 µM
[16] = second compound 0.316 µM, first compound 1 µM
[17] = second compound 0.316 µM, first compound 3.16 µM
[18] = second compound 0.316 µM, first compound 10 µM
[19] = second compound 1 µM, first compound 0.0316 µM
[20] = second compound 1 µM, first compound 0.1 µM
[21] = second compound 1 µM, first compound 0.316 µM
[22] = second compound 1 µM, first compound 1 µM
[23] = second compound 1 µM, first compound 3.16 µM
[24] = second compound 1 µM, first compound 10 µM
[25] = second compound 3.16 µM, first compound 0.0316 µM
[26] = second compound 3.16 µM, first compound 0.1 µM
[27] = second compound 3.16 µM, first compound 0.316 µM
[28] = second compound 3.16 µM, first compound 1 µM
[29] = second compound 3.16 µM, first compound 3.16 µM
[30] = second compound 3.16 µM, first compound 10 µM
[31] = second compound 10 µM, first compound 0.0316 µM
[32] = second compound 10 µM, first compound 0.1 µM
[33] = second compound 10 µM, first compound 0.316 µM
[34] = second compound 10 µM, first compound 1 µM
[35] = second compound 10 µM, first compound 3.16 µM
[36] = second compound 10 µM, first compound 10 µM
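Further: spheroids exposed to drugs for one week before measurement.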
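Wherever viability, T/C is given: percent viability relative to DMSO vehicle control taken as 100%.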

For `COc1cc2cc(C(=O)CCC(=O)O)sc2cc1OC` + COC1C(OC(N)=O)C(O)C(Oc2ccc3c(O)c(NC(=O)c4ccc(O)c(CC=C(C)C)c4)c(=O)oc3c2C)OC1(C)C, the IC50 (second compound 0.0316 µM) was over 10 µM, the IC50 (second compound 0.1 µM) was over 10 µM and the IC50 (second compound 0.316 µM) was over 10 µM. It also gave an IC50 (second compound 1 µM) of over 10 µM, an IC50 (second compound 3.16 µM) of over 10 µM and an IC50 (second compound 10 µM) of over 10 µM. The viability, T/C [1] was 112%, the viability, T/C [2] was 98.3% and the viability, T/C [3] was 106%. For the same compound, the viability, T/C [4] was 100%, the viability, T/C [5] was 113% and the viability, T/C [6] was 102%. For the same compound, the viability, T/C [7] was 95.8%, the viability, T/C [8] was 109% and the viability, T/C [9] was 101%. It also gave a viability, T/C [10] of 116%, a viability, T/C [11] of 99.2% and a viability, T/C [12] of 114%. The viability, T/C [13] was 112%, the viability, T/C [14] was 93.1% and the viability, T/C [15] was 104%. For the same compound, the viability, T/C [16] was 110%, the viability, T/C [17] was 113% and the viability, T/C [18] was 109%. For the same compound, the viability, T/C [19] was 91.8%, the viability, T/C [20] was 104% and the viability, T/C [21] was 104%. For the same compound, the viability, T/C [22] was 109%, the viability, T/C [23] was 104% and the viability, T/C [24] was 125%. For the same compound, the viability, T/C [25] was 108%, the viability, T/C [26] was 96% and the viability, T/C [27] was 94%. The viability, T/C [28] was 110%, the viability, T/C [29] was 112% and the viability, T/C [30] was 108%. It also gave a viability, T/C [31] of 103%, a viability, T/C [32] of 104% and a viability, T/C [33] of 95%. For the same compound, the viability, T/C [34] was 107%, the viability, T/C [35] was 110% and the viability, T/C [36] was 97.5%.
Work on `O=C(Nc1ccc(O)c(NS(=O)(=O)c2ccc(F)cc2)c1)c1ccc(-c2ccccc2)cc1` + COC1C(OC(N)=O)C(O)C(Oc2ccc3c(O)c(NC(=O)c4ccc(O)c(CC=C(C)C)c4)c(=O)oc3c2C)OC1(C)C yielded an IC50 (second compound 0.0316 µM) of 9.1 µM, an IC50 (second compound 0.1 µM) of over 10 µM and an IC50 (second compound 0.316 µM) of 8.62 µM. For the same compound, the IC50 (second compound 1 µM) was over 10 µM, the IC50 (second compound 3.16 µM) was over 10 µM and the IC50 (second compound 10 µM) was over 10 µM. The viability, T/C [1] was 105%, the viability, T/C [2] was 96.9% and the viability, T/C [3] was 94.2%. For the same compound, the viability, T/C [4] was 109%, the viability, T/C [5] was 112% and the viability, T/C [6] was 45.3%. For the same compound, the viability, T/C [7] was 95.6%, the viability, T/C [8] was 114% and the viability, T/C [9] was 105%. For the same compound, the viability, T/C [10] was 94.6%, the viability, T/C [11] was 86.3% and the viability, T/C [12] was 57.1%. It also gave a viability, T/C [13] of 127%, a viability, T/C [14] of 101% and a viability, T/C [15] of 104%. It also gave a viability, T/C [16] of 95.7%, a viability, T/C [17] of 97.7% and a viability, T/C [18] of 42.6%. It also gave a viability, T/C [19] of 110%, a viability, T/C [20] of 104% and a viability, T/C [21] of 108%. It also gave a viability, T/C [22] of 118%, a viability, T/C [23] of 93.3% and a viability, T/C [24] of 54.7%. The viability, T/C [25] was 109%, the viability, T/C [26] was 114% and the viability, T/C [27] was 109%. The viability, T/C [28] was 94.6%, the viability, T/C [29] was 99.4% and the viability, T/C [30] was 55.9%. For the same compound, the viability, T/C [31] was 96.2%, the viability, T/C [32] was 127% and the viability, T/C [33] was 106%. It also gave a viability, T/C [34] of 103%, a viability, T/C [35] of 96.5% and a viability, T/C [36] of 58.4%.
